For four molecules, IC50 results are on record in ChEMBL document CHEMBL1138347, “Multi-target-directed drug design strategy: from a dual binding site acetylcholinesterase inhibitor to a trifunctional compound against Alzheimer's disease” (J Med Chem, 2007).

One test has as its target Cholinesterase (Homo sapiens, UniProt P06276).
A further test addresses Acetylcholinesterase (Homo sapiens, UniProt P22303).
Test [1] in a line: Inhibition of human AChE-induced amyloid-beta (1-40) aggregation by thioflavin T fluorescene method.

Sequence of Cholinesterase (P06276 whole entry): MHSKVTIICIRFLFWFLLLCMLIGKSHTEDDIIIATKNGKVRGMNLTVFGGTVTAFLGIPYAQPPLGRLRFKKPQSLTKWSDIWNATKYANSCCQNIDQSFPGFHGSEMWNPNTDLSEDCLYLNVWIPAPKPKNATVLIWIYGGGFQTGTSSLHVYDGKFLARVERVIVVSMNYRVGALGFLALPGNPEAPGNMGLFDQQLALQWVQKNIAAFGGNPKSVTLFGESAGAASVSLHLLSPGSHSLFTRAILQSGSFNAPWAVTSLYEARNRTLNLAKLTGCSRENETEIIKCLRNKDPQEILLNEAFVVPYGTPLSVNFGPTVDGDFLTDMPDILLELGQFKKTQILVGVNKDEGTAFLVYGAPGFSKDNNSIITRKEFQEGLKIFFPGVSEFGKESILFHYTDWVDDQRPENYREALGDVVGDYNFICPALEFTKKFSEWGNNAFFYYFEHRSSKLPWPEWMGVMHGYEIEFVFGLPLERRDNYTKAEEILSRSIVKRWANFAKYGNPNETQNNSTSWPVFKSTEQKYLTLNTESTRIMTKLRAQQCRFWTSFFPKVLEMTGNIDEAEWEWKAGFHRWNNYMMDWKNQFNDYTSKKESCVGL
Sequence of Acetylcholinesterase (P22303 whole entry): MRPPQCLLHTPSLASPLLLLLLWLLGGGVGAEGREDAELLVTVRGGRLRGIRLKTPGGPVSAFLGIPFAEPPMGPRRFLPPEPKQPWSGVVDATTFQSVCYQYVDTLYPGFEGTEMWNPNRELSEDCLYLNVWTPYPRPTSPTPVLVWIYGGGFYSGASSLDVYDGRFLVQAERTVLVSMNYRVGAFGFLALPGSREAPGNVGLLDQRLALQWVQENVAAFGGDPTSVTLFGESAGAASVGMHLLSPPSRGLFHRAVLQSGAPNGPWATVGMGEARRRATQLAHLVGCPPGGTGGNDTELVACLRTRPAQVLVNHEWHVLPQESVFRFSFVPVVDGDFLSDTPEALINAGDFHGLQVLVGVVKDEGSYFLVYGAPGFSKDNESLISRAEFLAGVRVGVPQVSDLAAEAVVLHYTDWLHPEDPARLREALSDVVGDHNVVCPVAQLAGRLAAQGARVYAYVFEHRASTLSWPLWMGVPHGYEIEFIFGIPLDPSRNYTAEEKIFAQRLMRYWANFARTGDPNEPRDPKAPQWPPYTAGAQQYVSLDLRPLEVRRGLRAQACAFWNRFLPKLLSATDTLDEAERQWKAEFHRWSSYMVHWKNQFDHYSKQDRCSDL
Description for Acetylcholinesterase: Inhibition of human serum recombinant AChE by Ellman's method

Turning to `c1ccc2c(NCCOCCOCCNc3c4c(nc5ccccc35)CCCC4)c3c(nc2c1)CCCC3`, the IC50 (as a rule, the concentration at which inhibition is half-maximal) on Cholinesterase turned out to be 35.1 nM; against Acetylcholinesterase it was 19.7 nM. `O=C(CCCNc1c2c(nc3ccccc13)CCCC2)CCCNc1c2c(nc3ccccc13)CCCC2` came in with an IC50 against Cholinesterase of 11.3 nM. For `c1ccc2c(NCCCCCCCNc3c4c(nc5ccccc35)CCCC4)c3c(nc2c1)CCCC3`, the IC50 against Cholinesterase amounted to 5.66 nM; in test [1] it was 41700 nM. With `O=C(NCCNc1c2c(nc3ccccc13)CCCC2)C(=O)NCCNc1c2c(nc3ccccc13)CCCC2`, the IC50 at Cholinesterase is 5.44 nM; against Acetylcholinesterase, 6.65 nM.
